Series [1] is described as follows: Phase I metabolic stability in rat liver microsomes. Format: in vitro ADME. The note with it: FIG. 2; 10 μM, 0.5 mg/mL microsomes. As for the experimental part:
(§1) Methods: Phase I metabolic stability assay was conducted in rat and rhesus monkey liver microsomes. For phase I metabolism, the reaction was carried out with 100 mM potassium phosphate buffer, pH 7.4, in the presence of NADPH regenerating system (1.3 mM NADPH, 3.3 mM glucose 6-phosphate, 3.3 mM MgCl2, 0.4 U/mL glucose-6-phosphate dehydrogenase, 50 μM sodium citrate). Reactions in triplicate were initiated by addition of the liver microsomes to the incubation mixture (compound final concentration was 10 μM; 0.5 mg/mL microsomes). Negative controls in the absence of cofactors were carried out to determine the specific cofactor-free degradation. Compound disappearance was monitored via LC/MS/MS. Chromatographic analysis was performed using an Accela™ ultra high-performance system consisting of an analytical pump, and an autosampler coupled with TSQ Vantage mass spectrometer (Thermo Fisher Scientific Inc., Waltham MA). […] The mobile phase used was composed of 0.1% Formic Acid in Acetonitrile and 0.1% Formic Acid in H2O with gradient elution, starting with 10% (organic) linearly increasing to 99% up to 2 min, maintaining at 99% (2-2.5 min) and re-equilibrating to 10% by 2.7 min. The total run time for each analyte was 5.0 min.
(In general: Microsomes from liver hold many membrane-bound enzymes, among them those of drug oxidation.)

A short description of series [2]: Phase I metabolic stability in monkey liver microsomes. Format: in vitro ADME, rhesus monkey. The note with it: FIG. 1; 10 μM, 0.5 mg/mL microsomes. As for the experimental part:
as §1

For a further series, the system named is rats. The series can be described thus: Naloxone-precipitated conditioned place aversion in chronic oxycodone treated rats. It counts as in vivo, rat. The note with it: chronic oxycodone-treated rats, 5, 15 mg/kg, 1 hour prior to naloxone, FIG. 6. The source says: The place-conditioning apparatus (Med Associates, St Albans, VT) consisted of two compartments (21×28 cm^2) linked by a gray connecting area (21×12.5 cm^2); a sliding door separated each compartment from the connecting area. The two end compartments differed in wall color (black vs white), floor type (grid vs net), and illumination; preference for the end compartments was balanced by using weaker illumination in the reflective (and normally less-preferred) white compartment and stronger illumination in the non-reflective black compartment. The paradigm was further ‘balanced’ by associating the training injections with the white side in half the animals and with the black side in the remaining animals.
The CPA procedures in this study were similar to those described by others (Azar et al., 2003; Olmstead and Burns 2005; 2012). Briefly, one day before drug treatments started, rats (200-250 g) were randomly divided into 6 groups and were allowed to explore their assigned conditioning apparatus for 15 min (preconditioning). […] CPA score was calculated as animals' time spent in drug-paired minus saline-paired compartments, Oxycodone HCl and naloxone HCl were purchased from Sigma Chemical Co. (Saint Louis, MO, USA) and were dissolved in physiological saline.

In the next series the target is opiate mu receptor (Homo sapiens, UniProt P35372). The series can be described thus: Binding to opiate mu receptor.
Series [3] can be described thus: Sucrose self-administration. It counts as in vivo. As to conditions: pretreatment (±)-29 15 and 25 mg/kg, (±)-19 1 and 5 mg/kg.
A further series concerns squirrel monkeys. As to the kind of experiment: Cue-induced reinstatement of drug seeking in squirrel monkeys. Format: in vivo, squirrel monkey (Saimiri sciureus). From the text: Cue-induced reinstatement: After the completion of priming-induced reinstatement testing, the monkeys were returned to baseline THC self-administration for 5-10 sessions. In subsequent extinction sessions, drug injections and all cues associated with drug injections were removed. This means that catheters were not connected to a pump and monkeys were not receiving infusions or visual cue presentations. After two or three days of extinction, we tested for cue-induced reinstatement of extinguished drug-seeking behavior after vehicle pretreatment (i.m.) by allowing delivery of a saline injection paired with the drug-associated cues. […] Each reinstatement test was a single session, which was preceded and followed by extinction session(s) with vehicle pretreatment (i.m.) 30 min before the sessions.
Δ^9-tetrahydrocannabinol (THC, NIDA Drug Supply Program, Bethesda, MD, USA) was dissolved in a vehicle containing 1% Tween 80, 1% ethanol, and saline to obtain stock solution (0.4 mg/ml) and further diluted with saline. In the reinstatement tests, THC was injected i.v. (1 ml/kg) immediately before the session.

Another series addresses cannabinoid CB1 receptor (Homo sapiens, UniProt P21554). As to the kind of experiment: Binding to cannabinoid CB1 receptor.
Another series has as its target cannabinoid CB2 receptor (Homo sapiens, UniProt P34972). As to the kind of experiment: Binding to cannabinoid CB2 receptor.
The next series has as its system C57BL/6J mice. As to conditions: listed as (±)-29.

“Also recorded” adds a separate entry of the source.

Sequence of cannabinoid CB1 receptor (P21554 whole entry): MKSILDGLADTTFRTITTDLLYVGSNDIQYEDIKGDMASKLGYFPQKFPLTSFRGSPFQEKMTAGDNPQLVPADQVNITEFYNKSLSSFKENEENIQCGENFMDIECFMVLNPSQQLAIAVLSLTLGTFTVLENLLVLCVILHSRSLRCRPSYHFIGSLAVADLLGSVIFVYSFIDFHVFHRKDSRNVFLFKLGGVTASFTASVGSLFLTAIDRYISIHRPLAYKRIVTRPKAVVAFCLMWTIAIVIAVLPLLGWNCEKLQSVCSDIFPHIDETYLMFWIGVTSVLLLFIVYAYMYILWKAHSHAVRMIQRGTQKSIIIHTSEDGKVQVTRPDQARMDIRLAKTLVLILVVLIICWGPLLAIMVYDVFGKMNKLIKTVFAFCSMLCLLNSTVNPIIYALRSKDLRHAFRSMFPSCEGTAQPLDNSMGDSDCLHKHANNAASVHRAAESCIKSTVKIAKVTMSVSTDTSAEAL
Sequence of opiate mu receptor (P35372 whole entry): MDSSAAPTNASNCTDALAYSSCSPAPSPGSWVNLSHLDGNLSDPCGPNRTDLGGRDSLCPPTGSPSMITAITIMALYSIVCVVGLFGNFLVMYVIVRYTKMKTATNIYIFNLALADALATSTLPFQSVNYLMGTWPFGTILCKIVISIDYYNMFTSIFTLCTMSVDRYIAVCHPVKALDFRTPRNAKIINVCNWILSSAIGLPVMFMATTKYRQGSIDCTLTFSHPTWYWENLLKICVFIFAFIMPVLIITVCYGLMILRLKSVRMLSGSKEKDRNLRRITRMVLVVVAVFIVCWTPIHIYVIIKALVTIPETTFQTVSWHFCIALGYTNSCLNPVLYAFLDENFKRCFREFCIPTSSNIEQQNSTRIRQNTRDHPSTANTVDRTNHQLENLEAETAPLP
Sequence of cannabinoid CB2 receptor (P34972 whole entry): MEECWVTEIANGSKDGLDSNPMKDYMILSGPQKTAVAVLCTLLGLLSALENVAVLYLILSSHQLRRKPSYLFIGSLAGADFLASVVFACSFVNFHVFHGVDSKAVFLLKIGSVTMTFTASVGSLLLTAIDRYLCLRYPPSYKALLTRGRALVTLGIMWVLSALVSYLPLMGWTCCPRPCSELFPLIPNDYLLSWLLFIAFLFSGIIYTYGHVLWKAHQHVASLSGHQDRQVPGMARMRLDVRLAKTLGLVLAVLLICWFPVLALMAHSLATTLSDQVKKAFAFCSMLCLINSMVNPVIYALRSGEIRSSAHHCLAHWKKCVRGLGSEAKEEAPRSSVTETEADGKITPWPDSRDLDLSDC
Experimental for C57BL/6J mice: Twenty-four male mice (22-25 g) with a C57BL/6J genetic background were purchased from the Charles River Laboratories (Raleigh, NC).
Locomotor activity tests were conducted in open-field chambers (43×43×30 cm^3) (Accuscan Instruments, Inc., Columbus, OH, USA). […] On habituation days, the animals were moved to the test room, acclimated there for 10 min, and then placed in their assigned locomotor chambers. […] Then 15 min later, the animals were placed into the test chambers. Their locomotor activities were recorded every 20 min for 2 h using VersaMax version 3.0 software (Accuscan Instruments, Inc.). […] The locomotor activities were recorded for 2 h/day after each oxycodone injection. The locomotor behavioral data are expressed as means (±SEM). […] Posthoc Fisher's least significant difference was used for multiple comparisons. p<0.05 was considered statistically significant.

With `CCc1cc(Cl)c(OC)c(N2CCN(CC(O)CCNC(=O)c3cc4ccccc4[nH]3)CC2)c1` (racemic) [Compound 29, N-(4-(4-(3-chloro-5-ethyl-2-methoxyphenyl)piperazin-1-yl)-3-hydroxybutyl)-1H-indole-2-carboxamide], the “metabolic stability in rat liver microsomes versus PG648” value in [1] is “improved metabolic stability as compared to Compound 1; also recorded: significantly more stable than PG648”. Also, the “metabolic stability in monkey liver microsomes versus PG648” value in series [2] is given as “improved metabolic stability as compared to Compound 1; also recorded: surprisingly high metabolic stability”. For the same compound, the “naloxone-precipitated conditioned place aversion” value in the series with rats was “inhibits naloxone-precipitated conditioned place aversion; also recorded: significantly attenuated naloxone-precipitated conditioned place aversion”; in the series on rats (listed as (±)-29), “inhibition of naloxone-precipitated conditioned place aversion”. Further, the “binding to opiate mu receptor” value at opiate mu receptor is reported as “does not bind”. Also, the sucrose self-administration entry in series [3] is “no significant effects on sucrose self-administration”. Besides, the “cue-induced reinstatement of drug seeking behavior” value in the series on squirrel monkeys is listed as “attenuated cue-induced reinstatement of drug seeking behavior”. Moreover, on cannabinoid CB1 receptor, the “binding to cannabinoid CB1 receptor” value is “does not bind”. Further, the “binding to cannabinoid CB2 receptor” value at cannabinoid CB2 receptor is recorded as “does not bind”. For the same compound, the acute oxycodone-induced hyperactivity result in the series with C57BL/6J mice (mice, 5, 15 mg/kg ip 15 min before oxycodone 4 mg/kg, day 2) is given as “dose-dependently inhibited oxycodone-induced hyperactivity”. Further, the “oxycodone prime-induced locomotor sensitization after 2 days of withdrawal” value with C57BL/6J mice (mice, day 9, oxycodone 4 mg/kg challenge without pretreatment) is reported as “long-lasting inhibition in oxycodone-induced increases in locomotion”.

These data come from patent publication US12162861B2, “Dopamine D3 receptor selective antagonists/partial agonists; method of making; and use thereof” (THE UNITED STATES OF AMERICA, AS REPRESENTED BY THE …, priority 2016, dated 2024).
